Measurements from US20230089867A1, “CYCLIC PENTAMER COMPOUNDS AS PROPROTEIN CONVERTASE SUBTILISIN/KEXIN TYPE 9 (PCSK9) INHIBITORS FOR THE TREATMENT OF METABOLIC DISORDER” (Novartis AG, priority 2018, published 2023).
Where two headings read alike, the source gives them in different places.

Experiments:
[1] = amide bond, 18-membered ring, HATU/HOAt/2,6-lutidine, DCM
human PCSK9 = human PCSK9 (Homo sapiens, UniProt Q8NBP7); assay: PCSK9 ligand binding TR-FRET assay (interference with binding of human PCSK9 to human LDLR); settings: for Max % inhibition: PCSK9 FRET assay, efficacy (Amax), 100% = 1 uM unlabeled human PCSK9, 0% = DMSO; for IC50: TR-FRET, human PCSK9 Alexa Fluor 647 / human LDLR extracellular domain-Europium Kryptate, read-out: PCSK9 FRET Assay IC50
Outline: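 Threefold compound dilutions were pre-incubated 30 min with PCSK9, after which 4 nM Europium Kryptate-tagged human LDLR ectodomain was added for a further 2 h.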

human PCSK9, sequence (Q8NBP7 153-692): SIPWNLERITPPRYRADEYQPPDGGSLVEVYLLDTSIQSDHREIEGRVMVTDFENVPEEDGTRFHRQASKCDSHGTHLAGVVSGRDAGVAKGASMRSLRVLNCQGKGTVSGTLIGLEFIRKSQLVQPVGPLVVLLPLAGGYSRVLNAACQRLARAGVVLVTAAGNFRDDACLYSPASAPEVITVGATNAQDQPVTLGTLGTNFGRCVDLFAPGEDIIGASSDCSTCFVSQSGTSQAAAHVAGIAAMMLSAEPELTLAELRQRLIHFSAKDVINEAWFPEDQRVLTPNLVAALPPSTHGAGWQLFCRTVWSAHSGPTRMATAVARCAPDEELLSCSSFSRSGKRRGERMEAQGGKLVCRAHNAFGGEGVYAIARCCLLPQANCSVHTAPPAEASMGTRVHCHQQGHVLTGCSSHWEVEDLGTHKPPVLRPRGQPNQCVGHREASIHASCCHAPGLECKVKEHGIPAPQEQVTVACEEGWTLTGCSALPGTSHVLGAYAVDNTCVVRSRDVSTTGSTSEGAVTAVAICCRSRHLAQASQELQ
human PCSK9, sequence (Q8NBP7 31-152 partner limits assumed): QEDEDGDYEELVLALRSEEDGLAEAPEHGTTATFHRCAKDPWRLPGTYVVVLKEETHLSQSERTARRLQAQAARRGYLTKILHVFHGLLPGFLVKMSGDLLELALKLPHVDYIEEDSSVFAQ

Compound	Max % inhibition (human PCSK9) [%]	IC50 (human PCSK9) [nM]	also measured
COC[C@@H]1NC(=O)[C@H](C)N(Cc2ccc(Cl)cc2Oc2ccc(-c3cnc(CN(C)C)n3C)cc2)C(=O)C[C@@H](Cc2cccc(C)n2)C(=O)N(C)[C@H]2CCCC[C@@H]2NC(=O)C[C@H](Cc2ccc(Cl)cc2)N(C)C1=O [Compound 265, (4S,7S,10S,14R,16aS,20aS)-11-(4-chloro-2-(4-(2-((dimethylamino)methyl)-1-methyl-1H-imidazol-5-yl)phenoxy)benzyl)-4-(4-chlorobenzyl)-7-(methoxymethyl)-5,10,16-trimethyl-14-((6-methylpyridin-2-yl)methyl)hexadecahydrobenzo-[l][1,4,7,11,14]pentaazacyclooctadecine-2,6,9,12,15(3H)-pentaone]	104.88	312	ring closure, isolated yield ([1]; from (R)-4-(((1S,2S)-2-((S)-3-((S)-2-((S)-2-((4-chloro-2-(4-(2-((dimethylamino)methyl)-1-methyl-1H-imidazol-5-yl)phenoxy)benzyl)amino)propanamido)-3-methoxy-N-methylpropanamido)-4-(4-chlorophenyl)butanamido)cyclohexyl)(methyl)amino)-3-((6-methylpyridin-2-yl)methyl)-4-oxobutanoic acid, 45.0 °C): 31.1%
COC[C@@H]1NC(=O)[C@H](C)N(Cc2ccc(Cl)cc2Oc2ccc(-c3cnc(CN(C)C)n3C)cc2)C(=O)C[C@@H](Cc2ccccc2)C(=O)N(C)C2CCOCC2NC(=O)C[C@H](Cc2ccc(Cl)cc2)N(C)C1=O (some centres unmarked)			ring closure, isolated yield ([1]; from (3R)-3-benzyl-4-((3-((S)-3-((S)-2-((S)-2-((4-chloro-2-(4-(2-((dimethylamino)methyl)-1-methyl-1H-imidazol-5-yl)phenoxy)benzyl)amino)propanamido)-3-methoxy-N-methylpropanamido)-4-(4-chloro phenyl)butanamido)tetrahydro-2H-pyran-4-yl)(methyl)amino)-4-oxobutanoic acid, 45.0 °C): 17%
COC[C@@H]1NC(=O)[C@H](CCNC(=O)OC(C)(C)C)N(Cc2ccc(Cl)cc2Oc2ccc(-c3cnc(CN(C)C)n3C)cc2)C(=O)C[C@@H](Cc2ccccc2)C(=O)N(C)[C@H]2CCCC[C@@H]2NC(=O)C[C@H](Cc2ccc(Cl)cc2)N(C)C1=O			ring closure, isolated yield ([1]; from (R)-3-Benzyl-4-(((1S,2S)-2-((8S,11S,14S)-8-((4-chloro-2-(4-(2-((dimethylamino)methyl)-1-methyl-1H-imidazol-5-yl)phenoxy)benzyl)amino)-14-(4-chlorobenzyl)-11-(methoxymethyl)-2,2,13-trimethyl-4,9,12-trioxo-3-oxa-5,10,13-triazahexadecan-16-amido)cyclohexyl)(methyl)amino)-4-oxobutanoic acid, 0.845 mM, 45.0 °C): 59.6%
COC[C@@H]1NC(=O)[C@H](C)N(Cc2ccc(Cl)cc2Oc2ccc(-c3cnc(CN(C)C)n3C)cc2)C(=O)C[C@@H](Cc2ccccc2)C(=O)N(C)C2CC2NC(=O)C[C@H](Cc2ccc(Cl)cc2)N(C)C1=O.O=C(O)C(F)(F)F (mixture of isomers) [Compound 147, (5S,8S,11S,15R)-15-benzyl-12-(4-chloro-2-(4-(2-((dimethylamino)methyl)-1-methyl-1H-imidazol-5-yl)phenoxy)benzyl)-5-(4-chlorobenzyl)-8-(methoxymethyl)-6,11,17-trimethyl-2,6,9,12,17-pentaazabicyclo[16.1.0]nonadecane-3,7,10,13,16-pentaone trifluoroacetate]	104.16	3.7	ring closure, isolated yield ([1]; from (3R)-3-benzyl-4-((2-((S)-3-((S)-2-((S)-2-((4-chloro-2-(4-(2-((dimethylamino)methyl)-1-methyl-1H-imidazol-5-yl)phenoxy)benzyl)amino)propanamido)-3-methoxy-N-methylpropanamido)-4-(4-chlorophenyl)butanamido)cyclopropyl)(methyl)amino)-4-oxobutanoic acid?, 45.0 °C): 19%
COC[C@@H]1NC(=O)[C@H](CN2CCC2)N(Cc2ccc(Cl)cc2Oc2ccc(-c3cnc(CN(C)C)n3C)cc2)C(=O)C[C@@H](Cc2ccccc2)C(=O)N(C)[C@@H](C)CNC(=O)C[C@H](Cc2ccc(Cl)cc2)N(C)C1=O [Compound 17, (2S,5S,8S,13S,16R)-2-(azetidin-1-ylmethyl)-16-benzyl-1-(4-chloro-2-(4-(2-((dimethylamino)methyl)-1-methyl-1H-imidazol-5-yl)phenoxy)benzyl)-8-(4-chlorobenzyl)-5-(methoxymethyl)-7,13,14-trimethyl-1,4,7,11,14-pentaazacyclooctadecane-3,6,10,15,18-pentaone]	81.08	61.2	
C[C@H]1CNC(=O)C[C@H](Cc2ccc(Cl)cc2)N(C)C(=O)[C@H](Cc2nnn[nH]2)NC(=O)[C@H](C)N(Cc2ccc(Cl)cc2Oc2ccc(-c3cnc(CN(C)C)n3C)cc2)C(=O)C[C@@H](Cc2ccccc2)C(=O)N1C [Compound 148, (2S,5S,8S,13S,16R)-5-((1H-tetrazol-5-yl)methyl)-16-benzyl-1-(4-chloro-2-(4-(2-((dimethylamino)methyl)-1-methyl-1H-imidazol-5-yl)phenoxy)benzyl)-8-(4-chlorobenzyl)-2,7,13,14-tetramethyl-1,4,7,11,14-pentaazacyclooctadecane-3,6,10,15,18-pentaone]	94.67	29.2	
CNc1ncc(-c2ccc(Oc3cc(Cl)ccc3CN3C(=O)C[C@@H](Cc4ccccc4)C(=O)N(C)[C@@H](C)CNC(=O)C[C@H](Cc4ccc(Cl)cc4)N(C)C(=O)[C@H](COC)NC(=O)[C@@H]3C)cc2)cn1 [Compound 86, (2S,5S,8S,13S,16R)-16-benzyl-1-(4-chloro-2-(4-(2-(methylamino)pyrimidin-5-yl)phenoxy)benzyl)-8-(4-chlorobenzyl)-5-(methoxymethyl)-2,7,13,14-tetramethyl-1,4,7,11,14-pentaazacyclooctadecane-3,6,10,15,18-pentaone]	56.62	20.5	
C[C@@H]1CC(=O)N(Cc2ccc(Cl)cc2Oc2ccc(-c3cnc(CN(C)C)n3C)cc2)[C@@H](C)C(=O)N[C@@H](CO)C(=O)N(C)[C@@H](Cc2ccc(Cl)cc2)CC(=O)NC[C@H](C)N(C)C1=O [Compound 193, (2S,5S,8S,13S,16R)-1-(4-chloro-2-(4-(2-((dimethylamino)methyl)-1-methyl-1H-imidazol-5-yl)phenoxy)benzyl)-8-(4-chlorobenzyl)-5-(hydroxymethyl)-2,7,13,14,16-pentamethyl-1,4,7,11,14-pentaazacyclooctadecane-3,6,10,15,18-pentaone]	84.54	6.1	

Continued, in another order:

Max % inhibition (human PCSK9) [%]	IC50 (human PCSK9) [nM]	Compound	also measured
104.11	2.4	CCc1ccc(CN2C(=O)C[C@@H](Cc3ccccc3)C(=O)N(C)[C@@H](C)CNC(=O)C[C@H](Cc3ccc(Cl)cc3)N(C)C(=O)[C@H](COC)NC(=O)[C@@H]2CCF)c(Oc2ccc(-c3cnc(CN4CCCC4)n3C)cc2)c1 [Compound 26, (2S,5S,8S,13S,16R)-16-benzyl-8-(4-chlorobenzyl)-1-(4-ethyl-2-(4-(1-methyl-2-(pyrrolidin-1-ylmethyl)-1H-imidazol-5-yl)phenoxy)benzyl)-2-(2-fluoroethyl)-5-(methoxymethyl)-7,13,14-trimethyl-1,4,7,11,14-pentaazacyclooctadecane-3,6,10,15,18-pentaone]	ring closure, isolated yield ([1]; from (3S,6S,9S,14S,17R)-17-benzyl-9-(4-chlorobenzyl)-1-(4-ethyl-2-(4-(1-methyl-2-(pyrrolidin-1-ylmethyl)-1H-imidazol-5-yl)phenoxy)phenyl)-3-(2-fluoroethyl)-6-(methoxymethyl)-8,14,15-trimethyl-4,7,11,16-tetraoxo-2,5,8,12,15-pentaazanonadecan-19-oic acid, 0.238 mM, 39.0 °C): 47%
102.15	2.6	C=CC[C@@H]1CC(=O)N(Cc2ccc(Cl)cc2Oc2ccc(-c3cnc(CN(C)C)n3C)cc2)[C@@H](C)C(=O)N[C@@H](COC)C(=O)N(C)[C@@H](Cc2ccc(Cl)cc2)CC(=O)NC[C@H](C)N(C)C1=O [Compound 44, (2S,5S,8S,13S,16R)-16-allyl-1-(4-chloro-2-(4-(2-((dimethylamino)methyl)-1-methyl-1H-imidazol-5-yl)phenoxy)benzyl)-8-(4-chlorobenzyl)-5-(methoxymethyl)-2,7,13,14-tetramethyl-1,4,7,11,14-pentaaza cyclooctadecane-3,6,10,15,18-pentaone]	ring closure, isolated yield ([1]; from (3S,6S,9S,14S,17R)-17-allyl-1-(4-chloro-2-(4-(2-((dimethylamino)methyl)-1-methyl-1H-imidazol-5-yl)phenoxy)phenyl)-9-(4-chlorobenzyl)-6-(methoxymethyl)-3,8,14,15-tetramethyl-4,7,11,16-tetraoxo-2,5,8,12,15-pentaazanonadecan-19-oic acid, 45.0 °C): 26%
80.05	5.1	COC[C@@H]1NC(=O)[C@H](C)N(Cc2c(OC)cccc2Oc2ccc(-c3cnc(CN(C)C)n3C)cc2)C(=O)C[C@@H](Cc2ccccc2)C(=O)N(C)[C@@H](C)CNC(=O)C[C@H](Cc2ccc(Cl)cc2)N(C)C1=O [Compound 154, (2S,5S,8S,13S,16R)-16-benzyl-8-(4-chlorobenzyl)-1-(2-(4-(2-((dimethylamino)methyl)-1-methyl-1H-imidazol-5-yl)phenoxy)-6-methoxybenzyl)-5-(methoxymethyl)-2,7,13,14-tetramethyl-1,4,7,11,14-pentaazacyclooctadecane-3,6,10,15,18-pentaone]	
101.12	1.5	COC[C@@H]1NC(=O)[C@H](C)N(Cc2ccc(Cl)cc2Oc2ccc(-c3cnc(CN(C)C)n3C)cc2)C(=O)C[C@@H](Cc2ccccc2)C(=O)N(C)[C@@H](C)CNC(=O)C[C@H](Cc2ccc(Cl)cc2)N(C)C1=O [Compound 126, (2S,5S,8S,13S,16R)-16-benzyl-1-(4-chloro-2-(4-(2-((dimethylamino)methyl)-1-methyl-1H-imidazol-5-yl)phenoxy)benzyl)-8-(4-chlorobenzyl)-5-(methoxymethyl)-2,7,13,14-tetramethyl-1,4,7,11,14-pentaazacyclooctadecane-3,6,10,15,18-pentaone]	
